Experimental data as given in article PMC4553411, “Identification of B6T173 (ZmPrx35) as the prevailing peroxidase in highly insect-resistant maize (Zea mays, p84C3) kernels by activity-directed purification” (Frontiers in Plant Science, 2015).

Target: T1, B6T173 (ZmPrx35) (Zea mays, UniProt B6T173)
T1 construct: recombinant from p84C3 cDNA, amplified from start codon to stop codon, pET19b (His-tag), E. coli BL21 (DE3) Rosetta gami; class III peroxidase
Experiment: in-gel guaiacol-H2O2 activity staining of IMAC fractions
Assay type: biochemical
Conditions: H2O2 co-substrate; 20 mM guaiacol, 50 mM phosphate pH 6.8

T1 sequence (B6T173 1-339): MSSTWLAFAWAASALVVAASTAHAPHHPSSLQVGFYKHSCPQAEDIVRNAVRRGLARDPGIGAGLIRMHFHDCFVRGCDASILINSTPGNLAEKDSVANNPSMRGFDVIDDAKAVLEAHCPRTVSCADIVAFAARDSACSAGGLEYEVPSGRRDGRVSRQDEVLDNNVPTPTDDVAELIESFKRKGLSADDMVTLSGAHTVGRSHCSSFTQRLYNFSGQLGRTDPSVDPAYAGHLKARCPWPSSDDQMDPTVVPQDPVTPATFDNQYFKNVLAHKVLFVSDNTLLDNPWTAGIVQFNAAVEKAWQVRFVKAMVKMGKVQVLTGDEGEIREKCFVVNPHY

SMILES: COc1ccccc1O [guaiacol]
- in-gel guaiacol-H2O2 activity staining of IMAC fractions: Guaiacol-H2O2 staining of the same POD fractions
